Data set [1] has as its system NCI-H460 cells. The note with it: concentration of 100 μM; cited from earlier work.
In data set [2] the test system is HCT-15 cells. The note with it: concentration of 100 μM; cited from earlier work.
Data set [3] addresses T1, human FAK (Homo sapiens, UniProt Q05397).
T1 construct: The complete cDNA of human FAK; made in house; host or cells: baculovirus expression system (vector pFastBac HTc)
In words: FAK autophosphorylation inhibition, time resolved fluorescence (HTRF) assay. In kind it is biochemical. The note with it: 10 μM (values without asterisk); read-out: FAK % inhib at 10 μM. Summed up: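 Autophosphorylation was detected by europium-cryptate anti-pTyr and XL665 anti-His energy transfer, percent inhibition from the 665/620 ratio relative to no-compound wells. Enzyme: His-FAK full length, 6.6 µg/ml, incubated 1 h at 37 °C, pH 7.2, 15 µM ATP.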

Data set [4] concerns the target T2, human KDR enzyme (Homo sapiens, UniProt P35968).
T2 construct: The cytoplasmic domain of the human KDR enzyme; GST; made in house; host or cells: SF21 insect cells (baculovirus)
In words: KDR substrate (PLCγ) phosphorylation, scintillation assay. In kind it is biochemical. The note with it: 10 μM; read-out: KDR % inhib at 10 μM. In short, it runs like this: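 Values are percent inhibition relative to the compound-free control, read by scintillation counting of 33P incorporation after EDTA stop. Baculovirus/SF21-expressed GST-KDR cytoplasmic domain (100 ng) acted for 1 h at 37 °C in pH 7.2 MOPS kinase buffer. The substrate was GST-PLCγ SH2-SH3 (2 μg), added with γ33P-ATP and 2 μM unlabeled ATP.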

Data set [5] has as its target T3, Aurora2 kinase (Homo sapiens, UniProt O14965).
T3 construct: A complete recombinant Aurora2 enzyme; His tag (N); made in house; host or cells: E. coli
T3 sequence (O14965 1-403): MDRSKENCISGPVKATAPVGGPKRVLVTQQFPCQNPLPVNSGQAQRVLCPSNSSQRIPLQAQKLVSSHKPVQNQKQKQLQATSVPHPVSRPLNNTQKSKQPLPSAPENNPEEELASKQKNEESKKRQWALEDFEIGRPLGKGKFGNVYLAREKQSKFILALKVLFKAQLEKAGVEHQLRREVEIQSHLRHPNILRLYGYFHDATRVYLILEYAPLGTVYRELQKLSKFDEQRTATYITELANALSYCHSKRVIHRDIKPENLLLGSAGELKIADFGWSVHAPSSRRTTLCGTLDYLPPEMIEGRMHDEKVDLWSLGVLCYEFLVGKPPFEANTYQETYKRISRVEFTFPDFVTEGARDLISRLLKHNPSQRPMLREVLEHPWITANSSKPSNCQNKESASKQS
The data set is described as follows: Aurora2 kinase radioactivity scintillation assay using nickel chelate (NuMA substrate). In kind it is biochemical. The note with it: 10 μM; read-out: Aurora2 % inhib at 10 μM. In short, it runs like this:
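Read-out is 33P incorporation into His-NuMA (Q1687-H2101, 0.5 μM) captured on nickel chelate, after 30 min at 37 °C with 0.02 μM His-Aurora2 and 1 μM ATP. Expressed as percentage inhibition of uncompounded control activity, background subtracted.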

Data set [6] concerns c-Src protein. The data set is described as follows: Src kinase phosphorylation of biotinylated cdc2 substrate, fluorescence (DELFIA). In kind it is biochemical, human. The procedure:
The inhibition of the Src kinase is evaluated by measuring the phosphorylation of the biotinylated cdc2 substrate (Pierce) detected by fluorescence (DELFIA) using an antiphosphotyrosine antibody labeled with Europium, in 96-well Wallac plates. The c-Src protein used is a recombinant human protein produced in Baculovirus, comprising the SH3 and SH2 and the catalytic domains. The enzyme, the substrate and the various concentrations of test compounds are placed in the well in a 50 mM Tris buffer containing 10 mM MgCl2. The reaction is initiated by adding 10 μM of ATP. After incubation for 60 minutes at 30° C., the reaction is stopped by adding 75 mM EDTA. 50 μl are taken from each well and transferred into a plate coated with streptavidin. After incubation for 30 minutes at 25° C., the wells are washed with a washing buffer (Wallac) and then the antiphosphotyrosine antibody (PY20-Europium [Perkin Elmer]) is added in a volume of 75 μl. The plate is incubated for 30 minutes at 25° C. and then an “Enhancer” solution (Wallac) is added before reading the fluorescence using a fluorimeter (Perkin Elmer). The background noise is evaluated in triplicate in wells containing the substrate and the antibody in the absence of enzyme. The activity of the enzyme is measured (in triplicate) in the wells containing all the reagents in the absence of compound. The inhibition of the Src activity is expressed as percentage inhibition of the activity of the control determined in the absence of compound. The compound PP2 (Calbiochem) is included at various concentrations in each experiment as an inhibition control.

Here are results for 3 compounds from patent publication US6858638B2, “Substituted indazoles, compositions containing them, method of production and use” (Aventis Pharma S.A., priority 2002, dated 2005).

T1 sequence (Q05397 whole entry): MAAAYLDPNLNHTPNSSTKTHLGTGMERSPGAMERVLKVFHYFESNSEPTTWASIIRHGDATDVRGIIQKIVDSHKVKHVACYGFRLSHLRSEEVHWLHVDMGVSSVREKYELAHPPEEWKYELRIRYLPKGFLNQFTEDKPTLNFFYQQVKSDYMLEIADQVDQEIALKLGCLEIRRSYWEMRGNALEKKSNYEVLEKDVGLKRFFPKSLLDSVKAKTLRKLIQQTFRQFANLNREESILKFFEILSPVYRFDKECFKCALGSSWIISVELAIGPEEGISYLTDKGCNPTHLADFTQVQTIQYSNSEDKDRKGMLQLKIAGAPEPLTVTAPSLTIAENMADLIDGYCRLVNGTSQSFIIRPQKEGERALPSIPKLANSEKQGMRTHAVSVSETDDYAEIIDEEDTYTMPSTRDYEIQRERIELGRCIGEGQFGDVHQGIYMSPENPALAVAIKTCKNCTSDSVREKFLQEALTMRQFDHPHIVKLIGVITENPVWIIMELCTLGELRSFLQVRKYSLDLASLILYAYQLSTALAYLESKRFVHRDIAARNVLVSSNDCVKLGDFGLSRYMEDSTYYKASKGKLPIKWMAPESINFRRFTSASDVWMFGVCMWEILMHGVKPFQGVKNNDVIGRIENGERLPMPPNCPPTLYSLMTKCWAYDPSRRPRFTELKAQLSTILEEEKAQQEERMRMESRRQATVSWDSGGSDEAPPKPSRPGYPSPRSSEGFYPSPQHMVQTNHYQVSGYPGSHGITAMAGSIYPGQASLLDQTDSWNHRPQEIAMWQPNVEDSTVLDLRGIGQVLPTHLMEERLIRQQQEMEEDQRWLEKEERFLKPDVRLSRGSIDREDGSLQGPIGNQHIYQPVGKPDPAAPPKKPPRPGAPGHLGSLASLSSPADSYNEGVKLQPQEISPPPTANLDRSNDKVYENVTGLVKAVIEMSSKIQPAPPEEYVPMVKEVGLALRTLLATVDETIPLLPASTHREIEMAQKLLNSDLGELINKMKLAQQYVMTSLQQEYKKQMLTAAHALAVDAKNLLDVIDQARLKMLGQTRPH
T2 sequence (P35968 786-1356 limits assumed): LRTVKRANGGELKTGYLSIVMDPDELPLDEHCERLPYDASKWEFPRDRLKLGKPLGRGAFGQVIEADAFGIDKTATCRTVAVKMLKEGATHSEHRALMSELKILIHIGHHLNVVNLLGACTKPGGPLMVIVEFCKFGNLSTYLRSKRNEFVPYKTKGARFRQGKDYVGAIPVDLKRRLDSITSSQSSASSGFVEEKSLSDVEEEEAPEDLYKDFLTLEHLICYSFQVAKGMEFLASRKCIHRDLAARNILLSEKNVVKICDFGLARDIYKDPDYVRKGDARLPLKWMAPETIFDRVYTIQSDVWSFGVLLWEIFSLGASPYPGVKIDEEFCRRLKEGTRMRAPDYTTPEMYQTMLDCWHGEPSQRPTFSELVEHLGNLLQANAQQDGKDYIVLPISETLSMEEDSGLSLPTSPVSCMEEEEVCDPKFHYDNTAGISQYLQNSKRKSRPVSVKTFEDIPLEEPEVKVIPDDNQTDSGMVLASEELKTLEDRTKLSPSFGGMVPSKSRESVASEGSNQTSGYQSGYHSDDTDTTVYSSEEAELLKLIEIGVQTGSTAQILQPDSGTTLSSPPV

As to `COc1cc(S(=O)(=O)Nc2ccc3[nH]ncc3c2)cc(OC)c1OC` [N-(1H-indazol-5-yl)-3,4,5-trimethoxybenzenesulfonamide], the results for the growth inhibition in data set [1] and in data set [2] were 18.5% and 47.6%, respectively.
Turning to `O=[N+]([O-])c1cccc(S(=O)(=O)Nc2ccc3[nH]nc(-c4ccccc4)c3c2)c1` [Example 97, 3-Nitro-N-(3-phenyl-1H-indazol-5-yl)benzenesulfonamide], the melting point came out at 228 °C. Moreover, the inhibition at 10 µM in data set [3] is 50%. For the same compound, in data set [4], the inhibition at 10 µM is 96%. Besides, the inhibition at 10 µM in data set [5] amounted to 93%. Besides, the “SRC % inhib at 10 μM” value in data set [6] is given as 76%.
In the case of `CS(=O)(=O)c1ccccc1S(=O)(=O)Nc1ccc2[nH]nc(-c3ccc4ccccc4c3)c2c1` [Example 73, 2-Methylsulfonyl-N-(3-naphthalen-2-yl-1H-indazol-5-yl)-benzenesulfonamide], the melting point was 221 °C. Besides, the inhibition at 10 µM in data set [3] amounted to 87%. The inhibition at 10 µM in data set [4] came out at 38%. In addition, the inhibition at 10 µM in data set [5] is 100%. Also, the “SRC % inhib at 10 μM” value in data set [6] is given as 40%.
